Target: T1, recombinant autotaxin (Homo sapiens, UniProt Q13822)
T1 construct: made in house; host or cells: Hi5 insect cells (baculovirus)
Test: Autotaxin test (enzyme test), Amplex Red fluorescence with LPC substrate
Type: biochemical
Settings: autotaxin inhibition (enzyme test); for remaining activity at 10 µM: 10 μM compound, read-out: % Control at 10 μM
Experimental: Autotaxin Inhibition (Enzyme Test)
Autotaxin Test (Enzyme Test)
The autotaxin activity is measured indirectly using Amplex Red reagent. Amplex Red is measured here as fluorogenic indicator for the H2O2 formed. In detail, autotaxin converts the substrate lysophosphatidylcholine (LPC) into phosphocholine and lysophosphatidylic acid (LPA). After this reaction, the phosphocholine is reacted with alkaline phosphatase to give inorganic phosphate and choline. In the next step, choline is oxidised by choline oxidase to give betaine, with formation of H2O2. H2O2 reacts with Amplex Red reagent in the presence of peroxidase (horseradish peroxidase) in a 1:1 stoichiometry and forms the highly fluorescent resorufin. The fluorescence is measured in a reaction-dependent kinetic mode in order that fluorescent signals from possible other fluorescent substances which are not involved in the reaction can be corrected out.
3 μl of a standard solution or of the test substances (substances with the name A(n)) in individual concentrations dissolved in 20 mM Hepes pH 7.2 with a maximum of 11% of DMSO are pre-incubated together with 20 μl (19 ng) of highly purified recombinant autotaxin in test buffer in a black microtitre plate provided with 384 wells at 22° C. for 30 min. The reaction is then initiated by addition of 10 μl of L-α-lysophosphatidylcholine (LPC), where the final concentration of LPC is 75 μM. The mixture is incubated at 37° C. for 90 min. After the incubation, Amplex Red reagent, peroxidase (horseradish peroxidase) and choline oxidase is added, and the fluorescence is immediately measured at 612 nm with excitation of 485 nm in a “Tecan Ultra multimode” reader. The activity of autotaxin is calculated indirectly via detection of the H2O2 formed.
• Microtitre plate: PS microplate, 384 wells, small volume, black Corning, Cat#3677 • Protein: recombinant autotaxin (Baculovirale Hi5 Expression) • Substrate: L-α-lysophosphatidylcholine (chicken egg)); Avanti Polar Lipids #830071 P • Standard: C14 LPA, Avanti Polar Lipids, Cat#857120P • Detection reagent: Amplex Red reagent; Invitrogen #A12222; 5 mg dissolved in 1.923 ml of DMSO peroxidase type VI-A (horseradish) from Sigma #P6782; 5 mg dissolved in 7.45 ml of test buffer, choline oxidase; Sigma # C5896; 50 U dissolved in 2.47 ml of test buffer • Detection reagent mix: 1:50 dilution of detection reagent in test buffer • Test buffer: 10 mM Tris HCl, Merck, Cat #1.08219, pH 8, 1 mM; CaCl2×2 H2O, Merck #1.02382

SMILES: O=C1Nc2ccc(-c3ccc(Cl)cc3F)cc2C(=O)N2CCN(S(=O)(=O)CC3CCCCC3)C[C@H]12 [Compound A174]
- remaining activity at 10 µM: 21%
- IC50: 100 to 1000 nM

SMILES: NC(=O)C(=O)N1CCN2C(=O)c3cc(-c4ccco4)ccc3NC(=O)[C@H]2C1 [Compound A4, 2-((R)-7-Furan-2-yl-5,11-dioxo-3,4,5,10,11,11a-hexahydro-1H-2,4a,10-triazadibenzo[a,d]cyclo-hepten-2-yl)-2-oxoacetamide]
- remaining activity at 10 µM: 75%

SMILES: O=C1Nc2ccc(-c3ccc(Cl)cc3F)cc2C(=O)N2CCN(C(=O)[C@H]3CCCN3C3CCNCC3)CC12 (stereo partly drawn) [Compound A93, 7-(4-Chloro-2-fluorophenyl)-2-((R)-1-piperidin-4-ylpyrrolidine-2-carbonyl)-1,3,4,11a-tetrahydro-2H,10H-2,4a,10-triazadibenzo[a,d]cycloheptene-5,11-dione]
- remaining activity at 10 µM: 17%

SMILES: Cn1cc(CCC(=O)N2CCN3C(=O)c4cc(-c5ccc(Cl)cc5)ccc4NC(=O)C3C2)cn1 (stereo not shown) [Compound A26, 7-(4-Chlorophenyl)-2-[3-(1-methyl-1H-pyrazol-4-yl)-propionyl]-1,3,4,11a-tetrahydro-2H,10H-2,4a,10-triazadibenzo[a,d]cycloheptene-5,11-dione]
- remaining activity at 10 µM: 12%
- IC50: > 1000 nM

SMILES: O=C1Nc2ccc(-c3ccccc3F)cc2C(=O)N2CCN(C(=O)[C@@H]3CSCN3)C[C@H]12 [Compound A10, (R)-7-(2-Fluorophenyl)-2-((R)-thiazolidine-4-carbonyl)-1,3,4,11a-tetrahydro-2H,10H-2,4a,10-triazadibenzo[a,d]cycloheptene-5,11-dione]
- remaining activity at 10 µM: 34%
- IC50: > 1000 nM

SMILES: O=C([C@@H]1CCCN1C1CCNCC1)N1CCN2C(=O)c3cc(-c4ccc(Cl)cc4F)ccc3N(CCC3CCNCC3)C(=O)[C@@H]2C1 [Compound A164]
- remaining activity at 10 µM: 12%
- IC50: > 1000 nM

SMILES: CC(C)[C@@H](O)C(=O)N1CCN2C(=O)c3cc(-c4ccc(Cl)cc4F)ccc3NC(=O)C2C1 (stereo partly drawn) [Compound A77, 7-(4-Chloro-2-fluorophenyl)-2-((R)-2-hydroxy-3-methylbutyryl)-1,3,4,11a-tetrahydro-2H,10H-2,4a,10-triazadibenzo[a,d]cycloheptene-5,11-dione]
- remaining activity at 10 µM: 11%
- IC50: > 1000 nM

SMILES: O=C(C(=O)N1CCN2C(=O)c3cc(-c4ccc(Cl)cc4)ccc3NC(=O)C2C1)c1ccccc1 (stereo not shown) [Compound A35, 7-(4-Chlorophenyl)-2-(2-oxo-2-phenylacetyl)-1,3,4,11a-tetrahydro-2H,10H-2,4a,10-triaza-dibenzo[a,d]cycloheptene-5,11-dione]
- remaining activity at 10 µM: 11%
- IC50: > 1000 nM

SMILES: CC(C)(C)CC(=O)N1CCN2C(=O)c3cc(-c4ccc(Cl)cc4F)ccc3N(CCN3CCOCC3)C(=O)[C@@H]2C1 [Compound A161]
- remaining activity at 10 µM: 3%
- IC50: 100 to 1000 nM

SMILES: CC(C)(C)[C@H](O)C(=O)N1CCN2C(=O)c3cc(-c4ccc(Cl)cc4F)ccc3NC(=O)[C@H]2C1 [Compound A96, (R)-7-(4-Chloro-2-fluorophenyl)-2-((S)-2-hydroxy-3,3-dimethylbutyryl)-1,3,4,11a-tetrahydro-2H,10H-2,4a,10-triazadibenzo[a,d]cycloheptene-5,11-dione]
- remaining activity at 10 µM: 1%
- IC50: 100 to 1000 nM

SMILES: CC(C)(C)[C@H](N)C(=O)N1CCN2C(=O)c3cc(-c4ccc(Cl)cc4F)ccc3NC(=O)[C@H]2C1 [Compound A65, (R)-2-((S)-2-Amino-3,3-dimethylbutyryl)-7-(4-chloro-2-fluorophenyl)-1,3,4,11a-tetrahydro-2H,10H-2,4a,10-triazadibenzo[a,d]cycloheptene-5,11-dione]
- remaining activity at 10 µM: 48.5%
- IC50: > 1000 nM

SMILES: CC(C)(C)CC(=O)N1CCN2C(=O)c3cc(-c4ccc(Cl)cc4)ccc3N(CCO)C(=O)C2C1 (stereo not shown) [Compound A165]
- remaining activity at 10 µM: -20%
- IC50: 100 to 1000 nM

SMILES: CS(=O)(=O)CC(=O)N1CCN2C(=O)c3cc(-c4ccc(Cl)cc4)ccc3NC(=O)C2C1 (stereo not shown) [Compound A22, 7-(4-Chlorophenyl)-2-(2-methanesulfonylacetyl)-1,3,4,11a-tetrahydro-2H,10H-2,4a,10-triaza-dibenzo[a,d]cycloheptene-5,11-dione]
- remaining activity at 10 µM: 61%
- IC50: > 1000 nM

SMILES: O=C1Nc2ccc(-c3ccc(Cl)cc3)cc2C(=O)N2CCN(C(=O)CC3CCCC3)CC12 (stereo not shown) [Compound A25, 7-(4-Chlorophenyl)-2-(2-cyclopentylacetyl)-1,3,4,11a-tetrahydro-2H,10H-2,4a,10-triaza-dibenzo[a,d]cycloheptene-5,11-dione]
- remaining activity at 10 µM: 11%
- IC50: > 1000 nM

SMILES: O=C1Nc2ccc(-c3ccc(Cl)cc3)cc2C(=O)N2CCN(C(=O)[C@@H](O)c3ccccc3)C[C@H]12 [Compound A1, (R)-7-(4-Chlorophenyl)-2-((S)-2-hydroxy-2-phenylacetyl)-1,3,4,11a-tetrahydro-2H,10H-2,4a,10-triazadibenzo[a,d]cycloheptene-5,11-dione]
- IC50: > 1000 nM

SMILES: O=C1Nc2ccc(-c3ccc(Cl)cc3)cc2C(=O)N2CCN(C(=O)c3cccs3)C[C@H]12 [Compound B20]
- remaining activity at 10 µM: 71%

SMILES: O=C1Nc2ccc(-c3ccc(Cl)cc3)cc2C(=O)N2CCN(C(=O)C(F)(F)F)CC12 (stereo not shown) [Compound A136, 7-(4-Chlorophenyl)-2-(2,2,2-trifluoroacetyl)-1,3,4,11a-tetrahydro-2H,10H-2,4a,10-triazadibenzo-[a,d]cycloheptene-5,11-dione]
- remaining activity at 10 µM: 63%

SMILES: Cc1ccc(-c2ccc3c(c2)C(=O)N2CCN(C(=O)CC(C)(C)C)CC2C(=O)N3)c(F)c1F (stereo not shown) [Compound A82, 7-(2,3-Difluoro-4-methylphenyl)-2-(3,3-dimethyl-butyryl)-1,3,4,11a-tetrahydro-2H,10H-2,4a,10-triazadibenzo[a,d]cycloheptene-5,11-dione]
- remaining activity at 10 µM: -16%
- IC50: 100 to 1000 nM

SMILES: CC(C)[C@H](N)C(=O)N1CCN2C(=O)c3cc(-c4ccc(Cl)cc4F)ccc3NC(=O)C2C1 (stereo partly drawn) [Compound A59, 2-((S)-2-Amino-3-methylbutyryl)-7-(4-chloro-2-fluorophenyl)-1,3,4,11a-tetrahydro-2H,10H-2,4a,10-triazadibenzo[a,d]cycloheptene-5,11-dione]
- remaining activity at 10 µM: -9%
- IC50: > 1000 nM

SMILES: CC(C)(C)CC(=O)N1CCN2C(=O)c3cc(-c4ccc(Cl)cc4F)ccc3N(CC(N)=O)C(=O)[C@H]2C1 [Compound A150]
- remaining activity at 10 µM: 3%
- IC50: 100 to 1000 nM

SMILES: CN1CCN(C(=O)CN2C(=O)C3CN(C(=O)CC(C)(C)C)CCN3C(=O)c3cc(-c4ccc(Cl)cc4F)ccc32)CC1 (stereo not shown) [Compound A144]
- remaining activity at 10 µM: 11%
- IC50: > 1000 nM

SMILES: CC(C)(C)CC(=O)N1CCN2C(=O)c3cc(-c4cc(F)c(F)cc4F)ccc3NC(=O)C2C1 (stereo not shown) [Compound A92, 2-(3,3-Dimethylbutyryl)-7-(2,4,5-trifluorophenyl)-1,3,4,11a-tetrahydro-2H,10H-2,4a,10-triaza-dibenzo[a,d]cycloheptene-5,11-dione]
- remaining activity at 10 µM: 1%
- IC50: > 1000 nM

SMILES: CC(C)(C)C(=O)N1CCN2C(=O)c3cc(-c4ccc(Cl)cc4)ccc3NC(=O)C2C1 (stereo not shown) [Compound A109, 7-(4-Chlorophenyl)-2-(2,2-dimethylpropionyl)-1,3,4,11a-tetrahydro-2H,10H-2,4a,10-triaza-dibenzo[a,d]cycloheptene-5,11-dione]
- remaining activity at 10 µM: -21%
- IC50: > 1000 nM

SMILES: Cn1cc(CCC(=O)N2CCN3C(=O)c4cc(-c5ccc(Cl)cc5F)ccc4NC(=O)[C@@H]3C2)cn1 [Compound A98, (S)-7-(4-Chloro-2-fIuorophenyl)-2-[3-(1-methyl-1H-pyrazol-4-yl)propionyl]-1,3,4,11a-tetrahydro-2H,10H-2,4a,10-triazadibenzo[a,d]cycloheptene-5,11-dione]
- remaining activity at 10 µM: 90%
- IC50: > 1000 nM

SMILES: CC(C)(C)[C@H](N)C(=O)N1CCN2C(=O)c3cc(-c4ccc(Cl)cc4F)ccc3NC(=O)[C@@H]2C1 [Compound A66, (S)-2-((S)-2-Amino-3,3-dimethylbutyryl)-7-(4-chloro-2-fluorophenyl)-1,3,4,11a-tetrahydro-2H,10H-2,4a,10-triazadibenzo[a,d]cycloheptene-5,11-dione]
- remaining activity at 10 µM: 9.5%
- IC50: 100 to 1000 nM

SMILES: CC(C)(C)CC(=O)N1CCN2C(=O)c3cc(-c4ccccc4F)ccc3NC(=O)C2C1 (stereo not shown) [Compound A13, 2-(3,3-Dimethylbutyryl)-7-(2-fluorophenyl)-1,3,4,11a-tetrahydro-2H,10H-2,4a,10-triaza-dibenzo[a,d]cycloheptene-5,11-dione]
- IC50: > 1000 nM

From US20120115852A1, “HETEROCYCLIC COMPOUNDS AS AUTOTAXIN INHIBITORS” (Merck Patent Gesellschaft Mit Beschrankter Haftung, priority 2009, published 2012)
